Data set [1] concerns the target T1, iNOS (Mus musculus, UniProt P29477).
T1 construct: endogenous in cells; host or cells: primary BMMSCs and tBMMSCs
T1 sequence (P29477 1-1144): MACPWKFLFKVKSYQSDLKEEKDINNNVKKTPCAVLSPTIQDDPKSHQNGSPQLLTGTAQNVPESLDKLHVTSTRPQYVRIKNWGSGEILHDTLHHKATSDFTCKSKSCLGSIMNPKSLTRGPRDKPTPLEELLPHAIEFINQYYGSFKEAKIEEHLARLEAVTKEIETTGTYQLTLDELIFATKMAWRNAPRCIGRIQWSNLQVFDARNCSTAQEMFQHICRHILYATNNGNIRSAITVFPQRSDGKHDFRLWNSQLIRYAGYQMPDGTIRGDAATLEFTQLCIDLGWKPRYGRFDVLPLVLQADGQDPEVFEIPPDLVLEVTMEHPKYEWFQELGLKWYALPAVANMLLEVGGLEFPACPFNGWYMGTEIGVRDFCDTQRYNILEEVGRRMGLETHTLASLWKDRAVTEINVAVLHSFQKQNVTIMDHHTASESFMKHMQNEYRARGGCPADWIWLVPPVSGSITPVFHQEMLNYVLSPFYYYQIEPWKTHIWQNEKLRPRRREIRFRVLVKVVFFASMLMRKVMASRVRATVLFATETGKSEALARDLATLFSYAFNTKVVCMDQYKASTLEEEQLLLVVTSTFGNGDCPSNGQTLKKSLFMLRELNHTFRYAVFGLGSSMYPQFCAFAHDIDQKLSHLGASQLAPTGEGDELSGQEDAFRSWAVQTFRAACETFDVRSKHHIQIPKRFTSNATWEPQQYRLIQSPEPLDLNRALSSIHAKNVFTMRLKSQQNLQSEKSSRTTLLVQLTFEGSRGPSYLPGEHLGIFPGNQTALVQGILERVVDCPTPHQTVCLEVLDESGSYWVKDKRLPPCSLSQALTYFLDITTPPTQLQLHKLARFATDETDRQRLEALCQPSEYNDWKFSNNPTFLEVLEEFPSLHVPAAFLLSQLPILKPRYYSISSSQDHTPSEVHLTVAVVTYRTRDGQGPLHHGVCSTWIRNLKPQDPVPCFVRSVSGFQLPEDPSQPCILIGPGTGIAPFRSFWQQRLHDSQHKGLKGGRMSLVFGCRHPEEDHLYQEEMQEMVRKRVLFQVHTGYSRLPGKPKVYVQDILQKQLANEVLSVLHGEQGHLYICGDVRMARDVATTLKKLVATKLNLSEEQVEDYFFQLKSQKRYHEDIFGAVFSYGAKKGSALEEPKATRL
The experiment in a line: Western blot of iNOS expression. The class given is cell-based. The note with it: BMMSCs and tBMMSCs, L-NMMA 1 mM or 1400W 0.2 mM, 3 days. The procedure:
(§1) Western blotting analysis. […] of protein were used and SDS-PAGE and western blotting were performed according to standard procedures. β-actin on the same membrane served as the loading control.
(§2) Inhibitor treatment. tBMMSCs and BMMSCs were treated with 1 mM L-NMMA (Cayman Chemical) or 0.2 mM 1400 W (Cayman Chemical) to inhibit total NOS or iNOS, respectively. Aspirin 50 μg/ml (TAT) and telomerase inhibitor III (1 μM; EMD Chemicals) were used to activate and suppress telomerase activity in cultured BMMSCs, respectively. CHIRON 99021 (1 or 10 μM; Chiron Corporation) and Dickkopf 1 (DKK1, 10 ng/ml, R&D Systems) were used as an activator and inhibitor to regulate β catenin levels in BMMSCs.
A general note: In western blotting, separated proteins are transferred to a membrane and probed.

In data set [2] the test system is activated SP cells. The experiment in a line: Cell survival assay, Transwell co-culture with activated splenocytes (cell counting kit-8). The note with it: for tBMMSC / BMMSC effect on cell viability of activated SP cells: L-NMMA 1 mM or 1400W 0.2 mM in co-culture. The class given is cell-based, mouse. The procedure: (§3) Cell apoptosis and cell survival assay. Transwell system (Corning) was used for co-culture experiments. 0.2×10^6 of tBMMSCs or BMMSCs were seeded on each lower chamber. In the upper chambers, activated splenocytes (1×10^6/chamber), which were pre-stimulated with plate-bounded anti CD3ε antibody (5 μg/ml) and soluble anti CD28 antibody (2 μg/ml) for 3 days, were loaded. Both chambers were filled with a complete medium containing Dulbecco's Modified Eagle Medium (DMEM, Lonza) with 10% heat-inactivated FBS, 50 μM 2-mercaptoethanol, 10 mM HEPES, 1 mM sodium pyruvate (Sigma), 1% non-essential amino acid (Cambrex), 2 mM L-glutamine, 100 U/ml penicillin and […] streptomycin. To measure the splenocyte viability, cell counting kit-8 (Dojindo Molecular Technoloies) were used. For apoptosis of splenocyte analysis, Annexin V-PE apoptosis detection kit I (BD Bioscience) were used and analyzed on FACS^Calibur (BD Bioscience).
On the technique in general: Tetrazolium dyes change colour on reduction, which living cells bring about.

Data set [3] deals with activated SP cells. The experiment in a line: Cell apoptosis assay, Transwell co-culture with activated splenocytes (Annexin V/7AAD). The class given is cell-based, mouse. Conditions: for number of early and late apoptotic SP cells in tBMMSC and regular BMMSC groups: L-NMMA 1 mM or 1400W 0.2 mM in co-culture. The method, then:
as §3

The test system of data set [4] is CD4^+CD25^+Foxp3^+ Tregs. The experiment in a line: In vitro CD4+CD25+Foxp3+ Tregs induction. The note with it: L-NMMA 1 mM or 1400W 0.2 mM. Type of data set: cell-based, mouse. The procedure:
In vitro CD4^+CD25^+Foxp3^+Tregs induction. CD4^+CD25^− T-lymphocytes (1×10^6/well), collected by CD4^+CD25^+ regulatory T-cell Isolation kit (Miltenyi Biotec), were pre-stimulated with plate bounded anti CD3E antibody (5 μg/ml) and soluble anti CD28 antibody (2 μg/ml) for 3 days. These activated T-lymphocytes were loaded on 0.2×10^6 of BMMSC or tBMMSC cultures with recombinant human TFGβ1 (2 μg/ml) (R&D Systems) and recombinant mouse IL2 (2 μg/ml) (R&D Systems). After 3 days, cells in suspension were collected and stained with anti CD4-PerCP, anti CD8a-FITC, anti CD25-APC antibodies (each 1 μg) for 45 min on ice under dark condition. And then cells were stained with anti Foxp3-PE antibody (1 μg) using Foxp3 staining buffer kit (eBioscience) for cell fixation and permeabilization. The cells were analyzed on FACS^Calibur (BD Bioscience).

Data set [5] concerns NO production in BMMSCs. The experiment in a line: Measurement of nitric oxide production in BMMSC culture supernatant. Type of data set: cell-based, mouse. The procedure:
as §2
Measurement of nitric oxide production. BMMSCs (0.2×10^6/well) were cultured on 24-well plates with or without cytokines (IFNγ, 25 ng/ml; IL-1β, 5 ng/ml, R&D Systems) and chemicals (L-NMMA, 1 mM; 1400W, 0.2 mM; aspirin, 50 μg/ml; Telomerase inhibitor III, 1 μM; CHIRON 99021, 1 or 10 μM; DKK1, 10 ng/ml) at indicated concentration and days. The same chemical concentration was also used in combination treatment such as DKK and aspirin or Telomerase inhibitor and CHIRON99021. The supernatant from each culture was collected and measured nitric oxide concentration using Total Nitric Oxide and Nitrate/Nitrite Parameter Assay kit (R&D Systems) according to manufacturer's instruction.

For data set [6], the system named is telomerase. Nature of the data set: Telomerase activity, TeloTAGGG Telomerase PCR ELISA kit, mouse BMMSC cultures. Type of data set: cell-based. The procedure:
as §2
Measurement of telomerase activity. The Telomerase activity was measured using TeloTAGGG Telomerase PCR ELISA kit (Roche).
A general note: An ELISA detects its analyte on a solid surface through an enzyme-linked reagent.

The subject of data set [7] is active β-catenin. The experiment in a line: Western blot of active beta-catenin in BMMSCs. Type of data set: cell-based, mouse. The procedure:
as §1, §2

Data set [8] relates to CD73, Sca-1, Oct4, SSEA4, CD34, CD45. Nature of the data set: Flow cytometric analysis of mesenchymal stem cell surface molecules. Type of data set: cell-based, mouse. The note with it: aspirin treatment. The procedure:
Flow cytometric analysis of mesenchymal stem cell surface molecules. BMMSCs or pBMMSCs (0.2×10^6) were incubated with 1 µg of PE conjugated antibodies or isotype-matched control IgGs (Southern Biotech) at 4° C. for 45 min. Samples were analyzed by FACS^Calibur flow cytometer (BD Bioscience). For dual color analysis, the cells were treated with PE conjugated and FITC conjugated antibodies or isotype-matched control IgGs (each 1 […]g). The cells were analyzed on FACS^Calibur (BD Bioscience).

Data set [9] has as its system telomerase. The experiment in a line: Telomerase activity in human BMMSCs, Telo TAGGG Telomerase PCR ELISA kit. Type of data set: cell-based. Conditions: aspirin in culture medium at 2.5 μg/ml or 50 μg/ml for 1 week.
In data set [10] the test system is telomerase reverse transcriptase (TERT). The experiment in a line: Western blot of TERT expression. Conditions: aspirin treatment, one week. The class given is cell-based, mouse. The method, then: as §1
Setting [11] is: L-NMMA 1 mM or 1400W 0.2 mM, 3 days.
[12] abbreviates: BMMSCs treated with aspirin (TAT) prior to co-culture.

As to `CC(=N)NCc1cccc(CN)c1` [1400W], the iNOS expression entry in [1] is “inhibited”. In addition, in data set [2], the “tBMMSC / BMMSC effect on cell viability of activated SP cells” value is reported as “significantly block tBMMSC, but not regular BMMSC, induced cell viability”. Also, the “inhibition of early apoptotic SP cells, tBMMSC group compared to regular BMMSC group” value in [3] (1400W 0.2 mM) is on record as “significantly greater inhibition”. The “number of early and late apoptotic SP cells in tBMMSC and regular BMMSC groups” value in [3] is reported as “significantly reduced”. Moreover, in data set [4], the “BMMSC- and tBMMSC-induced up-regulation of Tregs” value is recorded as “inhibit”. Moreover, in [5] (setting [11]), the “NO production in BMMSCs” value was “inhibit NO production”.

Consider `Cc1cnc(-c2cnc(NCCNc3ccc(C#N)cn3)nc2-c2ccc(Cl)cc2Cl)[nH]1` [Chiron 99021], for which, in [6] (Chiron treatment, 7 days), the “Telomerase activity in BMMSCs” value is recorded as “elevated telomerase activity”. In data set [5] (Chiron 1 and 10 μM, 1 week), the “NO production in BMMSCs” value is “up-regulated NO production in BMMSCs in a dose-dependent manner”. Also, the “active beta-catenin in BMMSCs” value in data set [7] (Chiron 99021, 7 days) was “elevation of active beta-catenin in a dose-dependent manner”.

Turning to `CNC(=N)NCCC[C@H](N)C(=O)O` [L-NMMA, NG-monomethyl-L-arginine], in data set [1], the iNOS expression entry is given as “inhibited”. Moreover, the “tBMMSC / BMMSC effect on cell viability of activated SP cells” value in data set [2] is “significantly block tBMMSC, but not regular BMMSC, induced cell viability”. Moreover, the “number of early and late apoptotic SP cells in tBMMSC and regular BMMSC groups” value in data set [3] is given as “significantly reduced”. In addition, in [4], the “BMMSC- and tBMMSC-induced up-regulation of Tregs” value is on record as “inhibit”. In addition, the “NO production in BMMSCs” value in data set [5] (setting [11]) is reported as “inhibit NO production”.

On to `CC(=O)Oc1ccccc1C(=O)O` [aspirin], for which the “CD34 expression in BMMSCs” value in data set [8] is listed as “elevates CD34 expression”. Moreover, the “Telomerase activity in BMMSCs” value in data set [6] (regular BMMSCs cultured with aspirin (50 μg/ml) for one week) is recorded as “significantly elevated”. For the same molecule, the “Telomerase activity in human BMMSCs” value in [9] was “significantly increased level of telomerase activity”. The “BMMSC-induced reduction of activated SP cell viability” value in data set [2] (setting [12]) is recorded as “promote BMMSC-induced reduction of activated SP cell viability”. In addition, the “BMMSC-induced early and late apoptosis of activated SP cells” value in data set [3] (setting [12]) was “elevation of early and late apoptosis”. In addition, the “NO production in BMMSCs” value in data set [5] (regular BMMSCs cultured with aspirin for one week) is on record as “significantly elevated”. Moreover, the “telomerase reverse transcriptase (TERT) expression in BMMSCs” value in data set [10] is “significantly elevated”. The “DKK1-induced down-regulation of activated beta-catenin” value in data set [7] (aspirin (TAT) treatment) is “partially block”.

“DKK1: Wnt inhibitor, Dickkopf 1 (R&D Systems)”: the “aspirin (TAT)-induced telomerase activity in BMMSCs” value in [6] (DKK1 10 ng/ml, DKK-TAT) is “capable of blocking”. The “aspirin-induced NO production in BMMSCs” value in data set [5] (DKK1 10 ng/ml added prior to aspirin (TAT) treatment, three days) is recorded as “significantly block”. Besides, in data set [7] (DKK1 10 ng/ml), the “activated β-catenin level in BMMSCs” value is “reducing activated β-catenin level”.
